Laboratory results reported in ChEMBL document CHEMBL1772973, “Design, synthesis, radiolabeling, and in vitro and in vivo evaluation of bridgehead iodinated analogues of N-{2-[4-(2-methoxyphenyl)piperazin-1-yl]ethyl}-N-(pyridin-2-yl)cyclohexanecarboxamide (WAY-100635) as potential SPECT ligands for the 5-HT1A receptor” (J Med Chem, 2011).
Blank lines part the entries; values can stand above or below the molecule they belong to.

Columns and labels:
[1] = target: T1, Alpha-1D adrenergic receptor (Homo sapiens, UniProt P25100)
T1 sequence (P25100 whole entry): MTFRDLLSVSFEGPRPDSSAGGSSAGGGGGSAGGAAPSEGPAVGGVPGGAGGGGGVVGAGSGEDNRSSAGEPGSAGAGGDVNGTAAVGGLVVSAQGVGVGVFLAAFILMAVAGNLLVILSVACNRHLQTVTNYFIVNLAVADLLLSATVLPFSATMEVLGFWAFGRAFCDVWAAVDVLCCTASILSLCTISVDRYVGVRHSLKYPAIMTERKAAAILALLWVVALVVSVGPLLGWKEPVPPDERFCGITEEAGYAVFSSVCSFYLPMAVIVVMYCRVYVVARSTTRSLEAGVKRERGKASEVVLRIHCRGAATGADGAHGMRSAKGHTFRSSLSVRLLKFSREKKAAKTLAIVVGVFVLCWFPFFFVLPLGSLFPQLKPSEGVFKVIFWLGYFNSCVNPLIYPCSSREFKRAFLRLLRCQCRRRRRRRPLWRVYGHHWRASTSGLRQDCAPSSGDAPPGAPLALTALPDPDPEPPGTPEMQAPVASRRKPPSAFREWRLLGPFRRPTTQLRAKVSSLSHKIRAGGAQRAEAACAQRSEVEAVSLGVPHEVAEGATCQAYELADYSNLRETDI
Description: Inhibition of adrenergic Alpha-1D receptor

D(4) dopamine receptor = target: T2, D(4) dopamine receptor (Homo sapiens, UniProt P21917)
T2 sequence (P21917 whole entry): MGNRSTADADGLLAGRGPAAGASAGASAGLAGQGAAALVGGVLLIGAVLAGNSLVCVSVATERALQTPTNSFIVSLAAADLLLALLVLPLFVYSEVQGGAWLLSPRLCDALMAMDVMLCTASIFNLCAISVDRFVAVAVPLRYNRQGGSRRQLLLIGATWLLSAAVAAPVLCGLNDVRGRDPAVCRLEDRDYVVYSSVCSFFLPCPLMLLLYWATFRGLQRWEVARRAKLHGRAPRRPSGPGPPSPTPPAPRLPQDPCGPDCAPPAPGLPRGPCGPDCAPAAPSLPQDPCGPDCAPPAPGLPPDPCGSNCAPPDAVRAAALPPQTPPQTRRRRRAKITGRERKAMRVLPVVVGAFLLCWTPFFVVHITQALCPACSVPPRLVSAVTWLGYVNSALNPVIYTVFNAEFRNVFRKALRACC
Description: Inhibition of dopamine D4 receptor

[2] = target: T3, Alpha-1B adrenergic receptor (Homo sapiens, UniProt P35368)
T3 sequence (P35368 whole entry): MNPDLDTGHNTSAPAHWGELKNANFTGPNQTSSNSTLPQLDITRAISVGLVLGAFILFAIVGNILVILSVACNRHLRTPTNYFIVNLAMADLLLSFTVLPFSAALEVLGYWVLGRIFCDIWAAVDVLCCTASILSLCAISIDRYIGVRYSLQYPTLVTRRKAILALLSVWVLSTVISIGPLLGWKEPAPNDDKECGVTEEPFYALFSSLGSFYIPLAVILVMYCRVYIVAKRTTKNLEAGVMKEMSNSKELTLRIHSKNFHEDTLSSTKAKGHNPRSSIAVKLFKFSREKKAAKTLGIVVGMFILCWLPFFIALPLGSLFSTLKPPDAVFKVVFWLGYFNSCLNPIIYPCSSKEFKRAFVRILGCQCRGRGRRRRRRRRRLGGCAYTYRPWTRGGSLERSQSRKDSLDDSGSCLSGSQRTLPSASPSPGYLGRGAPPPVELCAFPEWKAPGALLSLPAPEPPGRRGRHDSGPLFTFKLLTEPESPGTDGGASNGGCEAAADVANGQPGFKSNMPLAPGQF
Description: Inhibition of adrenergic Alpha-1B receptor

[3] = target: 5-hydroxytryptamine receptor 7 (Homo sapiens, UniProt P34969)
[4] = target: T4, Alpha-1A adrenergic receptor (Homo sapiens, UniProt P35348)
T4 sequence (P35348 whole entry): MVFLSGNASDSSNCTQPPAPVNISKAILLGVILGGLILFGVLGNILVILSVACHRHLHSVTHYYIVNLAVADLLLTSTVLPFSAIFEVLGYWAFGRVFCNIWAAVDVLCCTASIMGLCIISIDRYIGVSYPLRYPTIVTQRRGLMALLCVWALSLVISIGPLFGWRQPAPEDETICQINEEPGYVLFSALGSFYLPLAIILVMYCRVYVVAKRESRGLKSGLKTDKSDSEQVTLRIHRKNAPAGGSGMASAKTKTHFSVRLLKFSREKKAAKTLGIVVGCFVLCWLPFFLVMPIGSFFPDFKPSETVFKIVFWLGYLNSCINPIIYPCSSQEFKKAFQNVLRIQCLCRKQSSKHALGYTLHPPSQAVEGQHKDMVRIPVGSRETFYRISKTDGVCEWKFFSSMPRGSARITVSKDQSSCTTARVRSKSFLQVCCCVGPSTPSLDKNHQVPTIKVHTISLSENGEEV
Description: Inhibition of adrenergic alpha1A receptor

[5] = target: T5, 5-hydroxytryptamine receptor 1A (Homo sapiens, UniProt P08908)
T5 sequence (P08908 whole entry): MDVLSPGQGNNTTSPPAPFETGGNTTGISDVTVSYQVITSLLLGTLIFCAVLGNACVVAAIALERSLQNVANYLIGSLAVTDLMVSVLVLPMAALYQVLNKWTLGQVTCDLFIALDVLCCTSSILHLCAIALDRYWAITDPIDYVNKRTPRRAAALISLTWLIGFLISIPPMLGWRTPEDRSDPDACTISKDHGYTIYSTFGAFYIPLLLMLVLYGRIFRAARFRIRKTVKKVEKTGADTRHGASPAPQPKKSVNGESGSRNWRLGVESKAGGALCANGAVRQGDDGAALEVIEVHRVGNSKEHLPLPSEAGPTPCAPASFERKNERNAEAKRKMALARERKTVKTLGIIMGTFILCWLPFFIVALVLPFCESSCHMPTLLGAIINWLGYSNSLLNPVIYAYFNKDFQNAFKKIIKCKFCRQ

[6] = target: 5-hydroxytryptamine receptor 1B (Homo sapiens, UniProt P28222)
physchem = settings: octanol/water, pH 7.4
[7] = target: T5, 5-hydroxytryptamine receptor 1A; experiment: biochemical
Description: Displacement of [3H]8-OH-DPAT from human cloned 5HT1A receptor expressed in HEK293 EBNA cells after 1 hr by liquid scintillation counting

Liver [8] = experiment: Biodistribution in Wistar rat liver at 7 MBq, iv after 45 mins; assay type: ADME, organism-based; settings: in vivo, 0.75 h
Blood [9] = experiment: Biodistribution in Wistar rat blood at 7 MBq, iv after 45 mins; assay type: ADME, organism-based; settings: in vivo, 0.75 h
Heart [10] = experiment: Biodistribution in Wistar rat heart at 7 MBq, iv after 45 mins; assay type: ADME, organism-based; settings: in vivo, 0.75 h
Striatum [11] = experiment: Biodistribution in Wistar rat striatum at 7 MBq, iv after 45 mins; assay type: ADME, organism-based; settings: in vivo, 0.75 h
Occipital cortex [12] = experiment: Biodistribution in Wistar rat occipital cortex at 7 MBq, iv after 45 mins; assay type: ADME, organism-based; settings: in vivo, 0.75 h
Lung [13] = experiment: Biodistribution in non-labeled WAY-100635 ptretreated Wistar rat lung at 7 MBq, iv after 45 mins; assay type: ADME, organism-based; settings: in vivo, 0.75 h
Heart [14] = experiment: Biodistribution in non-labeled WAY-100635 ptretreated Wistar rat heart at 7 MBq, iv after 45 mins; assay type: ADME, organism-based; settings: in vivo, 0.75 h
Blood [15] = experiment: Biodistribution in non-labeled WAY-100635 ptretreated Wistar rat blood at 7 MBq, iv after 45 mins; assay type: ADME, organism-based; settings: in vivo, 0.75 h
Hippocampus [16] = experiment: Biodistribution in Wistar rat hippocampus at 7 MBq, iv after 45 mins; assay type: ADME, organism-based; settings: in vivo, 0.75 h
Rattus norvegicus [17] = experiment: Biodistribution in Wistar rat rest cortex at 7 MBq, iv after 45 mins; assay type: ADME, organism-based; settings: in vivo, 0.75 h
Rattus norvegicus [18] = experiment: Biodistribution in Wistar rat frontal cortex at 7 MBq, iv after 45 mins; assay type: ADME, organism-based; settings: in vivo, 0.75 h
Cerebellum [19] = experiment: Biodistribution in Wistar rat cerebellum at 7 MBq, iv after 45 mins; assay type: ADME, organism-based; settings: in vivo, 0.75 h
Kidney [20] = experiment: Biodistribution in Wistar rat kidney at 7 MBq, iv after 45 mins; assay type: ADME, organism-based; settings: in vivo, 0.75 h
Lung [21] = experiment: Biodistribution in Wistar rat lung at 7 MBq, iv after 45 mins; assay type: ADME, organism-based; settings: in vivo, 0.75 h
Liver [22] = experiment: Biodistribution in non-labeled WAY-100635 ptretreated Wistar rat liver at 7 MBq, iv after 45 mins; assay type: ADME, organism-based; settings: in vivo, 0.75 h
Kidney [23] = experiment: Biodistribution in non-labeled WAY-100635 ptretreated Wistar rat kidney at 7 MBq, iv after 45 mins; assay type: ADME, organism-based; settings: in vivo, 0.75 h
Thyroid gland = experiment: Biodistribution in non-labeled WAY-100635 ptretreated Wistar rat thyroid assessed per organ at 7 MBq, iv after 45 mins; assay type: ADME, organism-based; settings: in vivo, 0.75 h
Rattus norvegicus [24] = experiment: Biodistribution in non-labeled WAY-100635 ptretreated Wistar rat frontal cortex at 7 MBq, iv after 45 mins; assay type: ADME, organism-based; settings: in vivo, 0.75 h
Occipital cortex [25] = experiment: Biodistribution in non-labeled WAY-100635 ptretreated Wistar rat occipital cortex at 7 MBq, iv after 45 mins; assay type: ADME, organism-based; settings: in vivo, 0.75 h
Rattus norvegicus [26] = experiment: Biodistribution in non-labeled WAY-100635 ptretreated Wistar rat rest cortex at 7 MBq, iv after 45 mins; assay type: ADME, organism-based; settings: in vivo, 0.75 h
Striatum [27] = experiment: Biodistribution in non-labeled WAY-100635 ptretreated Wistar rat striatum at 7 MBq, iv after 45 mins; assay type: ADME, organism-based; settings: in vivo, 0.75 h
Hippocampus [28] = experiment: Biodistribution in non-labeled WAY-100635 ptretreated Wistar rat hippocampus at 7 MBq, iv after 45 mins; assay type: ADME, organism-based; settings: in vivo, 0.75 h
Cerebellum [29] = experiment: Biodistribution in non-labeled WAY-100635 ptretreated Wistar rat cerebellum at 7 MBq, iv after 45 mins; assay type: ADME, organism-based; settings: in vivo, 0.75 h
Nucleic Acid [30] = experiment: Ratio of drug level in cerebellum to hippocampus in Wistar rat at 7 MBq, iv after 45 mins; assay type: ADME, organism-based; settings: in vivo, 0.75 h
Nucleic Acid [31] = experiment: Ratio of drug level in cerebellum to occipital cortex in Wistar rat at 7 MBq, iv after 45 mins; assay type: ADME, organism-based; settings: in vivo, 0.75 h
Nucleic Acid [32] = experiment: Ratio of drug level in cerebellum to frontal cortex in Wistar rat at 7 MBq, iv after 45 mins; assay type: ADME, organism-based; settings: in vivo, 0.75 h
Nucleic Acid [33] = experiment: Ratio of drug level in cerebellum to striatum in Wistar rat at 7 MBq, iv after 45 mins; assay type: ADME, organism-based; settings: in vivo, 0.75 h

Sequence of 5-hydroxytryptamine receptor 7 (P34969 whole entry): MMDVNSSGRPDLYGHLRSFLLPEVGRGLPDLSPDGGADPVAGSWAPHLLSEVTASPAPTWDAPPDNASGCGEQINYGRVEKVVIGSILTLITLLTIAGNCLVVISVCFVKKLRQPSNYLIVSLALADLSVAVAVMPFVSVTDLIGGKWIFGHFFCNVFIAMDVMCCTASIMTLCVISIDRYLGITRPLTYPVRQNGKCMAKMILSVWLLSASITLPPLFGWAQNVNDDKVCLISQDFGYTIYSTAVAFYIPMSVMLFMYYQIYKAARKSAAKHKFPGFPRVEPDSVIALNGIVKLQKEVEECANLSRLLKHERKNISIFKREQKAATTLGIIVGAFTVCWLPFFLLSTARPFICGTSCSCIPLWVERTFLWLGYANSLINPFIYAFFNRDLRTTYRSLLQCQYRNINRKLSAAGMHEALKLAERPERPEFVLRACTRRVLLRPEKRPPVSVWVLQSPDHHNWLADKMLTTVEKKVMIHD
Sequence of 5-hydroxytryptamine receptor 1B (P28222 whole entry): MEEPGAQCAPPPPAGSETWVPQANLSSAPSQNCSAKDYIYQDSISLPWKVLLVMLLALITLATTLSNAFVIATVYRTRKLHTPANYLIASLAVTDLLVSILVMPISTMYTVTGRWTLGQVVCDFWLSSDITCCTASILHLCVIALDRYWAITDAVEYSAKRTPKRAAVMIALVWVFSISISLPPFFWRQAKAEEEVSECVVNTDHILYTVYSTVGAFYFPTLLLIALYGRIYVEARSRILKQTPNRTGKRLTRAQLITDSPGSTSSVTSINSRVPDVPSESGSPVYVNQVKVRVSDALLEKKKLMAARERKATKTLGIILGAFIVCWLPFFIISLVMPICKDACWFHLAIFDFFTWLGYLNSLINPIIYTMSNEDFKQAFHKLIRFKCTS

Ki [1]: 181 nM
Ki (D(4) dopamine receptor): 890 nM
Ki [2]: 25 nM
Ki [3]: 50 nM
Ki [4]: 176 nM
Ki [5]: 1.4 nM
Ki [6]: 272 nM
logD (physchem): 4.03
IC50 [7]: 1.5 nM
Ki [7]: 0.64 nM
Structure (SMILES): O=C(N(CCN1CCN(c2ccccc2O)CC1)c1ccccn1)C12C3C4C1C1C2C3C41I (stereo not drawn)

IC50 [7]: 4.57 nM
Ki [7]: 1.95 nM
Structure (SMILES): O=C(N(CCN1CCN(c2ccccc2O)CC1)c1ccccn1)C12CCC(I)(CC1)CC2

IC50 [7]: 1.19 nM
Ki [7]: 0.47 nM
Structure (SMILES): O=C(N(CCN1CCN(c2ccccc2O)CC1)c1ccccn1)C12CCC(I)(CC1)C2

Drug uptake (Liver [8]): 2.34 % ID/g
Drug uptake (Blood [9]): 0.24 % ID/g
Drug uptake (Heart [10]): 0.16 % ID/g
Drug uptake (Striatum [11]): 0.04 % ID/g
Drug uptake (Occipital cortex [12]): 0.06 % ID/g
Drug uptake (Lung [13]): 0.31 % ID/g
Drug uptake (Heart [14]): 0.2 % ID/g
Drug uptake (Blood [15]): 0.33 % ID/g
Drug uptake (Hippocampus [16]): 0.1 % ID/g
Drug uptake (Rattus norvegicus [17]): 0.05 % ID/g
Drug uptake (Rattus norvegicus [18]): 0.06 %ID
Drug uptake (Cerebellum [19]): 0.05 % ID/g
Drug uptake (Kidney [20]): 1.37 % ID/g
Drug uptake (Lung [21]): 0.28 % ID/g
Drug uptake (Liver [22]): 2.77 % ID/g
Drug uptake (Kidney [23]): 1.32 % ID/g
Drug uptake (Thyroid gland): 0.01 %ID
Drug uptake (Rattus norvegicus [24]): 0.05 % ID/g
Drug uptake (Occipital cortex [25]): 0.05 % ID/g
Drug uptake (Rattus norvegicus [26]): 0.04 % ID/g
Drug uptake (Striatum [27]): 0.04 % ID/g
Drug uptake (Hippocampus [28]): 0.06 % ID/g
Drug uptake (Cerebellum [29]): 0.05 % ID/g
Ratio (Nucleic Acid [30]): 2.51
Ratio (Nucleic Acid [31]): 1.21
Ratio (Nucleic Acid [32]): 1.16
Ratio (Nucleic Acid [33]): 0.91
Structure (SMILES): COc1ccccc1N1CCN(CCN(C(=O)C23C4C5C2C2C3C4C52[123I])c2ccccn2)CC1 (stereo not drawn)

IC50 [7]: 0.77 nM
Ki [7]: 0.33 nM
Structure (SMILES): O=C(C1CCCCC1)N(CCN1CCN(c2ccccc2O)CC1)c1ccccn1
